Assay results: ChEMBL document CHEMBL2424615, “Design, synthesis, and characterization of novel tetrahydropyran-based bacterial topoisomerase inhibitors with potent anti-gram-positive activity” (J Med Chem, 2013)

How the values were obtained:
[1] = Inhibition of wild type Escherichia coli ATCC 25922 DNA gyrase subunit 2GyrA/2GyrB assessed as pBR322 supercoiling after 1 hr
[2] = tested on: Pseudomonas aeruginosa; test: Antibacterial activity against wild type Pseudomonas aeruginosa ATCC 27853 assessed as growth inhibition by broth microdilution method; assay type: functional
[3] = molecular target: Topoisomerase IV (Staphylococcus aureus, UniProt P0C1S7+P0C1U9); test: Inhibition of wild type Staphylococcus aureus ATCC 29213 topoisomerase-4 subunit 2GrlA/2GrlB assessed as pBR322 relaxation after 1 hr; assay type: protein-complex assay
[4] = tested on: Staphylococcus aureus; test: Antibacterial activity against methicillin and quinolone-resistant Staphylococcus aureus A-798 assessed as growth inhibition by broth microdilution method; assay type: functional
[5] = Inhibition of wild type Escherichia coli ATCC 25922 DNA topoisomerase-4 subunit 2ParC/2ParE assessed as pBR322 relaxation after 1 hr
[6] = tested on: Streptococcus pneumoniae; test: Antibacterial activity against wild type Streptococcus pneumoniae ATCC 49619 assessed as growth inhibition by broth microdilution method; assay type: functional
[7] = molecular target: DNA gyrase (Staphylococcus aureus, UniProt P0A0K8+P20831); test: Inhibition of wild type Staphylococcus aureus DNA gyrase subunit 2GyrA/2GyrB assessed as pBR322 supercoiling after 1 hr; assay type: protein-complex assay
[8] = tested on: Escherichia coli; test: Antibacterial activity against wild type Escherichia coli ATCC 25922 assessed as growth inhibition by broth microdilution method; assay type: functional
[9] = tested on: Staphylococcus aureus; test: Antibacterial activity against wild type Staphylococcus aureus ATCC 29213 assessed as growth inhibition by broth microdilution method; assay type: functional
[10] = tested on: Enterococcus faecium; test: Antibacterial activity against vancomycin-resistant Enterococcus faecium A-949 assessed as growth inhibition by broth microdilution method; assay type: functional
[11] = molecular target: DNA gyrase subunit A (Staphylococcus aureus, UniProt P20831, D83N); test: Inhibition of NXL-101-resistant Staphylococcus aureus DNA gyrase D83N mutant assessed as pBR322 supercoiling after 1 hr
[12] = molecular target: DNA gyrase subunit A (Staphylococcus aureus, UniProt P20831, S84L); test: Inhibition of quinolone-resistant Staphylococcus aureus A-798 DNA gyrase S84L mutant assessed as pBR322 supercoiling after 1 hr
[13] = tested on: Staphylococcus aureus; test: Antibacterial activity against NXL-101-resistant Staphylococcus aureus harboring DNA gyrase D83N mutant assessed as growth inhibition by broth microdilution method; assay type: functional

COc1ccc2ncc(F)c([C@@H](O)CC[C@@H]3CCN(CCSc4cccs4)C[C@@H]3C(=O)O)c2c1
IC50 [1]: 32 µM
MIC [2]: > 8 µg/mL
IC50 [3]: 128 µM
MIC [4]: 0.25 µg/mL
IC50 [5]: 2 µM
MIC [6]: 1 µg/mL
IC50 [7]: 0.125 µM
MIC [8]: > 8 µg/mL
MIC [9]: 0.125 µg/mL
MIC [10]: 1 µg/mL
IC50 [11]: 128 µM
IC50 [12]: 0.125 µM
MIC [13]: > 8 µg/mL

N#Cc1ccc2ccc(=O)n(CCN3CC[C@H](NCc4cc5c(cn4)OCCO5)[C@H](F)C3)c2c1
IC50 [1]: 8 µM
MIC [2]: > 8 µg/mL
IC50 [3]: 8 µM
MIC [4]: 0.015 µg/mL
IC50 [5]: 0.125 µM
MIC [6]: 0.25 µg/mL
IC50 [7]: 0.03 µM
MIC [8]: 8 µg/mL
MIC [9]: 0.015 µg/mL
MIC [10]: 0.5 µg/mL
IC50 [11]: 32 µM
IC50 [12]: 0.03 µM
MIC [13]: 1 µg/mL
